Laboratory results as given in US7829666B2, “Maurotoxin, PI1 and HSTX1 derivatives” (Cellpep Pharma Inc., priority 2000, dated 2010).
Bridge positions count the residues as written; N and C are the ends. Square brackets hold non-standard residues; d marks the D form. Peptide text beside a SMILES is read from it. Abu = CC[C@H](N)C(=O)O

Legend:
[1] = Lethality/toxicity in C57/BL6 mice, intracerebroventricular injection; format: in vivo; settings: mouse, in vivo
Excerpt: (§1) The MTX derivatives, as well as the MTX structurally homologous Pi1 or HsTx1 derivatives, of the invention are thus of potential therapeutic value for treating mammalian (including human) pathologies that are associated with a dysfunctioning of Ca^2+-activated and/or voltage-gated Kv channel subtypes. Such pathologies include immune and/or neurological diseases like multiple sclerosis, Parkinson's and Alzheimer's diseases, both thought to be associated with a dysfunctioning of Ca^2+-activated and/or voltage-gated K^+ channel subtype(s). The axonal impulse propagation ensures a continued transmission of nervous signals to remote targets. In a number of neuropathies, the nervous conduction is either slowed down or locked. This could be linked to alteration or functional changes of myelinated fibres (demyelinisation or alteration of the membrane properties at the Ranvier nodes). Among these neuropathies are multiple sclerosis (central nervous system; CNS) and Guillain-Barr syndrome (peripheral nervous system). It is now well-admitted that alteration of the axonal function is related to the presence of voltage-gated (Kv) K^+ channels (there is a widespread distribution of Kv1.1 and Kv1.2 channel subtypes in nerve terminals throughout the brain, whereas Kv channels—independent of their subtypes—are considered to be ubiquitous, including in the peripheral nervous system), and possibly Ca^2+-activated K^+ channels. In the previously cited neuropathies, Ca^2+-activated K^+ channels and Kv channels are either abnormally exposed in demyelinated or inflammatory lesions, or over-expressed. Therefore, selective K^+-channel blockers, including Ca^2+-activated K^+ channel-acting and/or Kv-acting MTX/Pi1/HsTx1-derived peptides such as [Q15]-MTX, Pi1 amidated at C-terminus, [Abu9, 19, 29, 34]-MIX, are of potential therapeutic value as symptomatic therapy of multiple sclerosis and related neuropathies, as well as for use as selective immuno-suppressant drugs by their blocking action on Ca^2+-activated and/or Kv channels. Further, it can be speculated that such peptide blockers, in the CNS, could enhance transmitter release in pathways affected by progressive neurodegenerative diseases such as Alzheimer's disease.

[2] = target: T1, mammalian voltage-gated Kv1.2 channel subtype (Homo sapiens, UniProt P16389); settings: background statement; picomolar or nanomolar concentration range; cited from earlier work
[3] = tested on: Ca2+-activated K+ channels, e.g. apamin-sensitive SK channels; settings: background statement; cited from earlier work
rat Kv1.3 channels = rat Kv1.3 channels (Rattus norvegicus, UniProt P15384); settings: background statement; cited from earlier work
[4] = target: T1, mammalian voltage-gated Kv1.2 channel subtype; assay: Blocking activity on voltage-gated Kv1.2 channel; format: cell-based
Excerpt: (§2) In one preferred derivative, the substitution of the MTX half-cystine residues (by amino butyrate derivatives) located at positions 9, 19, 29, and 34 (corresponding by numbers to C2, C4, C6, and C8) results in a two disulfide-bridged MTX analog, i.e. VSCTGSKDAbuYAPCRKQTGAbuPNAKCINKSAbuKCYGAbu-NH2 [SEQ. ID NO. 8], with novel, non-native arrangement of the half-cystine pairings (Cys3-Cys24 and Cys13-Cys31).
An alternative approach to replacement of Cys residues with Abu is the replacement of one or two amino acid residues in natural MTX with other residues which prevent the folding of the molecule in such a way that the unconventional C1-C5, C2-C6, C3-C7 and C4-C8 disulfide bridge arrangement can occur. For instance, if neither of the residues at positions 32 and 33 is a Gly or Pro residue, the folding is altered in such a way that the MTX derivative adopts the conventional C1-C5, C2-C6, C3-C7 and C4-C8 of Pi1 and HsTx1. In particular, replacement of the Gly residue at position 33 by an Ala residue substitution, forming [A33]-MTX [SEQ. ID NO. 4], is effective. Substitution of Arg14 and/or Lys15 by Gln to give [Q14]-MTX [SEQ. ID NO. 5], [Q15]-MTX [SEQ. ID NO. 6] or [Q14,Q15]-MTX [SEQ. ID NO. 7] also induces half-cystine pairings between Cys3-Cys24, Cys9-Cys29, Cys13-Cys31 and Cys19-Cys34.

[5] = tested on: Ca2+-activated K+ channels; assay: Activity of MTX analog on Ca2+-activated K+ channels; format: cell-based
Excerpt: as §2

C57/BL6 mice = assay: Lethality/toxicity in C57/BL6 mice, intracerebroventricular injection; format: in vivo
Excerpt: as §1

T1 sequence (P16389 whole entry): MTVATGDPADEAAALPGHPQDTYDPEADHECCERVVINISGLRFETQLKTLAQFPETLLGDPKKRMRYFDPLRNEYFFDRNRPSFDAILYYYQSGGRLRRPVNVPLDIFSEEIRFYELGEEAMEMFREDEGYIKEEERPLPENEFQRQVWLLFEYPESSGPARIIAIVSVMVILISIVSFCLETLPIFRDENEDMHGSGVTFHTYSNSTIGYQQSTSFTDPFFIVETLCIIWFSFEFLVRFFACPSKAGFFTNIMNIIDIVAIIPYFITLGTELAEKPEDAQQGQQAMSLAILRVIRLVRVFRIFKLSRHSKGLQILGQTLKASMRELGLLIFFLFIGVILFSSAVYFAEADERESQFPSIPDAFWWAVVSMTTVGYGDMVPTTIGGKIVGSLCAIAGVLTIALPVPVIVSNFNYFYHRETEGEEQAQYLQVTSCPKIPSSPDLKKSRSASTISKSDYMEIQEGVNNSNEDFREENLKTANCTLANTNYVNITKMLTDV
rat Kv1.3 channels, sequence (P15384 whole entry): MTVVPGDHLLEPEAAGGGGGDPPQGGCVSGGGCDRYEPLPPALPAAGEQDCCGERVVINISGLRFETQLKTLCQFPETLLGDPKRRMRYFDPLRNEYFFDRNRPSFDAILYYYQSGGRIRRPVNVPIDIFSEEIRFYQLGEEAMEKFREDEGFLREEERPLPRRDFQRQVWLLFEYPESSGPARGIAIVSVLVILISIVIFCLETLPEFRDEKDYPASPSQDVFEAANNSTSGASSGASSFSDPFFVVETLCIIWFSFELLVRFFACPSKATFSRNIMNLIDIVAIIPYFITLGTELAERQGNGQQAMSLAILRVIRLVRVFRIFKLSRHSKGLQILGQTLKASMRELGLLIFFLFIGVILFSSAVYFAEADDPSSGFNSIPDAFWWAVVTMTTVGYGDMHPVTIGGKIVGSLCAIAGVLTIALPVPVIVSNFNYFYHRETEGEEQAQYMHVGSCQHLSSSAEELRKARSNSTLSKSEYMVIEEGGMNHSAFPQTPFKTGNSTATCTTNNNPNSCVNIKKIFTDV

For `CC[C@H](C)[C@@H]1NC(=O)[C@@H]2CSSC[C@H](NC(=O)[C@H](CO)NC(=O)[C@@H](N)C(C)C)C(=O)N[C@@H]([C@@H](C)O)C(=O)NCC(=O)N[C@@H](CO)C(=O)N[C@@H](CCCCN)C(=O)N[C@@H](CC(=O)O)C(=O)N[C@@H](CSSC[C@@H](C(=O)N[C@@H](CCCCN)C(=O)N[C@H]3CSSC[C@@H](C(N)=O)NC(=O)CNC(=O)[C@H](Cc4ccc(O)cc4)NC3=O)NC(=O)[C@H](CO)NC(=O)[C@H](CCCCN)NC(=O)[C@H](CC(N)=O)NC1=O)C(=O)N[C@@H](Cc1ccc(O)cc1)C(=O)N[C@@H](C)C(=O)N1CCC[C@H]1C(=O)N[C@H]1CSSC[C@H](NC(=O)CNC(=O)[C@H]([C@@H](C)O)NC(=O)[C@H](CCC(N)=O)NC(=O)[C@H](CCCCN)NC(=O)[C@H](CCCNC(=N)N)NC1=O)C(=O)N1CCC[C@H]1C(=O)N[C@@H](CC(N)=O)C(=O)N[C@@H](C)C(=O)N[C@@H](CCCCN)C(=O)N2` [MTX] (H-VSCTGSKDCYAPCRKQTGCPNAKCINKSCKCYGC-NH2; disulfide 3-24, 9-29, 13-19, 31-34), the LD50 ([1]; other: intracerebroventricular) is listed as 4 µg/kg, the “activity on voltage-gated K+ channel subtypes including Kv1.2” value [2] is listed as “active” and the “activity on Ca2+-activated K+ channels, e.g. apamin-sensitive SK channels” value (“activity … e.g. apamin-sensitive SK channels” below) [3] is listed as “active”. For the same compound, the “activity on rat Kv1.3 channels” value (rat Kv1.3 channels) was “active”.

For `CC[C@H](C)[C@@H]1NC(=O)[C@@H]2CSSC[C@H](NC(=O)[C@H](CCCCN)NC(=O)[C@@H](NC(=O)[C@@H](N)CC(C)C)C(C)C)C(=O)N[C@@H](CCCNC(=N)N)C(=O)NCC(=O)N[C@@H]([C@@H](C)O)C(=O)N[C@@H](CO)C(=O)N[C@@H](CC(=O)O)C(=O)N[C@H]3CSSC[C@H](NC(=O)[C@H](CCSC)NC(=O)[C@H](CCCNC(=N)N)NC(=O)[C@H](CC(N)=O)NC1=O)C(=O)N[C@@H](CCCCN)C(=O)N[C@H]1CSSC[C@H](NC(=O)[C@@H]4CCCN4C(=O)[C@H](CCCNC(=N)N)NC(=O)CNC3=O)C(=O)N[C@@H](CCC(N)=O)C(=O)N[C@@H](CCC(N)=O)C(=O)N[C@@H](CCC(N)=O)C(=O)N[C@@H]([C@@H](C)O)C(=O)NCC(=O)N[C@@H](CSSC[C@@H](C(N)=O)NC(=O)CNC(=O)[C@H](Cc3ccc(O)cc3)NC1=O)C(=O)N1CCC[C@H]1C(=O)N[C@@H](CC(N)=O)C(=O)N[C@@H](CO)C(=O)N[C@@H](CCCCN)C(=O)N2` [Pi1] (H-LVKCRGTSDCGRPCQQQTGCPNSKCINRMCKCYGC-NH2; disulfide 4-25, 10-30, 14-32, 20-35; N-terminus and C-terminus assumed), the LD50 [1] is listed as 10 µg/kg, the “activity … e.g. apamin-sensitive SK channels” value [3] is listed as “active” and the “activity on rat Kv1.3 channels” value (rat Kv1.3 channels) is listed as “active on rat Kv1.3 channels contrary to synthetic Pi1”.

For `CC[C@H](NC(=O)CNC(=O)[C@H](Cc1ccc(O)cc1)NC(=O)[C@@H]1CSSC[C@@H]2NC(=O)[C@@H]3CCCN3C(=O)[C@H](C)NC(=O)[C@H](Cc3ccc(O)cc3)NC(=O)[C@H](CC)NC(=O)[C@H](CC(=O)O)NC(=O)[C@H](CCCCN)NC(=O)[C@H](CO)NC(=O)CNC(=O)[C@H]([C@@H](C)O)NC(=O)[C@@H](NC(=O)[C@H](CO)NC(=O)[C@@H](N)C(C)C)CSSC[C@H](NC(=O)[C@H](CCCCN)NC(=O)[C@H](C)NC(=O)[C@H](CC(N)=O)NC(=O)[C@@H]3CCCN3C(=O)[C@H](CC)NC(=O)CNC(=O)[C@H]([C@@H](C)O)NC(=O)[C@H](CCC(N)=O)NC(=O)[C@H](CCCCN)NC(=O)[C@H](CCCNC(=N)N)NC2=O)C(=O)N[C@@H]([C@@H](C)CC)C(=O)N[C@@H](CC(N)=O)C(=O)N[C@@H](CCCCN)C(=O)N[C@@H](CO)C(=O)N[C@@H](CC)C(=O)N[C@@H](CCCCN)C(=O)N1)C(N)=O` [[Abu9, 19, 29, 34]-MTX, VSCTGSKDAbuYAPCRKQTGAbuPNAKCINKSAbuKCYGAbu-NH2] (H-VSCTGSKD[Abu]YAPCRKQTG[Abu]PNAKCINKS[Abu]KCYG[Abu]-NH2; disulfide 3-24, 13-31), the IC50 [4] was 0.042 µM, the “activity on Ca2+-activated K+ channels” value [5] was “remains active” and the lethality/toxicity (C57/BL6 mice; injected intracerebroventricularly, up to 1.25 mg/kg) was “neither lethal nor toxic”.

In the case of `CC[C@H](C)[C@@H]1NC(=O)[C@@H]2CSSC[C@H](NC(=O)[C@H](CO)NC(=O)[C@@H](N)C(C)C)C(=O)N[C@@H]([C@@H](C)O)C(=O)NCC(=O)N[C@@H](CO)C(=O)N[C@@H](CCCCN)C(=O)N[C@@H](CC(=O)O)C(=O)N[C@H]3CSSC[C@H](NC(=O)[C@H](CO)NC(=O)[C@H](CCCCN)NC(=O)[C@H](CC(N)=O)NC1=O)C(=O)N[C@@H](CCCCN)C(=O)N[C@H]1CSSC[C@H](NC(=O)[C@@H]4CCCN4C(=O)[C@H](C)NC(=O)[C@H](Cc4ccc(O)cc4)NC3=O)C(=O)N[C@@H](CCCNC(=N)N)C(=O)N[C@@H](CCC(N)=O)C(=O)N[C@@H](CCC(N)=O)C(=O)N[C@@H]([C@@H](C)O)C(=O)NCC(=O)N[C@@H](CSSC[C@@H](C(N)=O)NC(=O)CNC(=O)[C@H](Cc3ccc(O)cc3)NC1=O)C(=O)N1CCC[C@H]1C(=O)N[C@@H](CC(N)=O)C(=O)N[C@@H](C)C(=O)N[C@@H](CCCCN)C(=O)N2` [[Q15]-MTX] (H-VSCTGSKDCYAPCRQQTGCPNAKCINKSCKCYGC-NH2; disulfide 3-24, 9-29, 13-31, 19-34), the lethality/toxicity (C57/BL6 mice; injected intracerebroventricularly at active concentrations) is reported as “neither lethal nor toxic”.

In the case of HsTx1, the “activity … e.g. apamin-sensitive SK channels” value [3] is listed as “inactive”.
